Patent US20240174649A1, “CULLIN-RING E3 UBIQUITIN LIGASE 4 INHIBITOR COMPOUNDS AND METHODS OF THEIR USE” (ICAHN SCHOOL OF MEDICINE AT MOUNT SINAI, priority 2021, published 2024)

Tests used:
E3 (CUL1) = E3 (CUL1) (Homo sapiens (Human), UniProt Q13616); assay: E3 (CUL1) inhibition (Table 1); type: biochemical
Description: The reaction mixture (15 μl) was assembled onto a 384-well microtiter plate. […] ATP (0.66 mM) was then added to the mix followed by a brief centrifugation to settle down the mixture. The resulting plate was incubated at 30° C. in the Synergy-H1 reader and the fluorescence signal was monitored. Ubiquitination was quantified based on the ratio of acceptor:donor fluorescence (excitation 515 nm; donor emission 570 nm, acceptor emission 670 nm).

E3 (CUL4) = E3 (CUL4) (Homo sapiens (Human), UniProt Q13619); assay: E3 (CUL4) inhibition (Table 1); type: biochemical
Description: The reaction was incubated for 5 min at 37° C. […] The reaction was incubated for 5 min at room temperature. In the second step (chase), the completed Cdc34b-Ub thiol ester reaction mixture was combined with one third of the completed mono-ubiquitination mixture. The final volume was adjusted to 10 μl with a mix that contained 50 mM Tris-HCl (pH 7.4), 0.5 mM DTT, 0.1 mg/ml of BSA, 5 mM MgCl2, and 2 mM ATP. Compounds were added where indicated. The chase reaction was incubated for 10 min at 37° C. The reaction products were separated by 4-20% SDS-polyacrylamide gel electrophoresis. The reaction scheme was identical to the one described above for FIGS. 12A-B. […] The reaction products, separated by SDS-PAGE, were visualized and analyzed by phospho-imaging using Typhoon 9500 scanner.

cancer cells = assay: Apoptosis, Annexin V flow cytometry; type: cell-based; conditions: Table 1
Description: Cells (5×10^4) were seeded 24 hours before compound treatment. Compound was added to the culture media and cells were cultured with the compound for 48 hours. The treated cells were then transferred into 5 ml flow cytometry tubes and the well was washed once with PBS to collect any remaining cells. The cells were then pelleted at 500×g for 5 min with a Beckman CS-6KR centrifuge at 4° C. After removal of supernatant, the cells pellet was washed with Annexin V binding buffer (10 mM Hepes-NaOH, pH 7.4, 150 mM NaCl, 5 mM KCl, 1 mM MgCl2, and 1.8 mM CaCl2). Cells were pelleted once again and incubated in the dark with Annexin V-FITC (2 μg/ml) in binding buffer for 5 min then analyzed using LSRFortessa flow cytometer (BD).

Chain of E3 (CUL1) (Q13616 whole entry): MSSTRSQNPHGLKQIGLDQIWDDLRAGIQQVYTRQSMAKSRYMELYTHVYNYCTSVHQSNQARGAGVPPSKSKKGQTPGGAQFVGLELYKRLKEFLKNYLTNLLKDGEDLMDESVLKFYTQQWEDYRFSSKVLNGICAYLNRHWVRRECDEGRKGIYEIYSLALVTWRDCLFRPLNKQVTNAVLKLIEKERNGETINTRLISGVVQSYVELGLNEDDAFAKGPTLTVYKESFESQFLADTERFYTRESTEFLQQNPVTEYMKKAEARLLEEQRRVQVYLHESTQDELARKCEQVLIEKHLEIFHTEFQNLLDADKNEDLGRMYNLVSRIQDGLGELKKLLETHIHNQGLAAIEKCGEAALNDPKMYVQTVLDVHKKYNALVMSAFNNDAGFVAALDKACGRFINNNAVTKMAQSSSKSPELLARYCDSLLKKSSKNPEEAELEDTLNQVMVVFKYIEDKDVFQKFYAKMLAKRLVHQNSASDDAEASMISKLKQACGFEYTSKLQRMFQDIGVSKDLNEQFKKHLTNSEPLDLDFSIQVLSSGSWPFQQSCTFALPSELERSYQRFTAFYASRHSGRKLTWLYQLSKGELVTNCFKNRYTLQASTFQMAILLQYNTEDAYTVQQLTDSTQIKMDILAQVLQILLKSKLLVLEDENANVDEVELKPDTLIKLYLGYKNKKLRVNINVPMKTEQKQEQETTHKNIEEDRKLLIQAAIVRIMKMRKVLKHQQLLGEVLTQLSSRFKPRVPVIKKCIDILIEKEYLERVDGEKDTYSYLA
Chain of E3 (CUL1) (P62877 whole entry partner): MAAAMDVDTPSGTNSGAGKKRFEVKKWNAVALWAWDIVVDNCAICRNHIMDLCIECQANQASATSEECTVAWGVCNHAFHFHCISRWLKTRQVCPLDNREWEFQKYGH
Chain of E3 (CUL4) (Q13619 whole entry): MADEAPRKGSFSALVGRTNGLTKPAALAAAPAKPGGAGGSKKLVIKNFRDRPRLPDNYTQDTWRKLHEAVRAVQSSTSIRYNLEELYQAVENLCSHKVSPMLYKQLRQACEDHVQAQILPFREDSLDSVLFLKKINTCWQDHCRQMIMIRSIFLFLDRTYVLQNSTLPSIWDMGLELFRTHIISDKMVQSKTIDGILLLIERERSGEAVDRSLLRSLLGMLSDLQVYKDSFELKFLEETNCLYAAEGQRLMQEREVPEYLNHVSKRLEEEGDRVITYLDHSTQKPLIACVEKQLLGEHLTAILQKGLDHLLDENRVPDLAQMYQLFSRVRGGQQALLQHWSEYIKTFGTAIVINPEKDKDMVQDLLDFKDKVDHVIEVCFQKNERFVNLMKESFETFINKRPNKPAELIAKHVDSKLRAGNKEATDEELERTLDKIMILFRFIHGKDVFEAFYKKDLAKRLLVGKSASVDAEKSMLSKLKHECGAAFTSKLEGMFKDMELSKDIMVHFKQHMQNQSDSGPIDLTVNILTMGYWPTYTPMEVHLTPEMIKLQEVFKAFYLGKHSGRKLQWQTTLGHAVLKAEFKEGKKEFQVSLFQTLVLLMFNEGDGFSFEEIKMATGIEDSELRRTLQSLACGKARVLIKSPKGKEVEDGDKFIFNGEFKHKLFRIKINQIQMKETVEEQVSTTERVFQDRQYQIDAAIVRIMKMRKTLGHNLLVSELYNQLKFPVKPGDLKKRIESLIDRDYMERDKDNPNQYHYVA
Chain of E3 (CUL4) (P62877 whole entry partner): as the sequence (P62877 whole entry partner) above

EC50 (E3 (CUL1)) | EC50 (E3 (CUL4)) | E3 (CUL4) Inhibition EC50 (E3 (CUL4)) | EC50 (cancer cells) | E3 (CUL1) Inhibition EC50 (E3 (CUL1)) | Apoptosis EC50 (cancer cells) | Compound
32 µM | > 75 µM | – | – | – | – | CC(=O)Oc1ccc2c(=O)cc(C(F)(F)F)oc2c1OC(C)=O [KH-3-12]
11 µM | > 75 µM | – | – | – | – | O=c1ccoc2c(O)c(O)ccc12 [KH-3-49]
4.9 µM | – | Inactive | – | – | – | O=c1cc(C(F)(F)F)oc2c(O)c(O)ccc12 [KH-3-50]
9.3 µM | > 14 µM | – | 6 µM | – | – | O=c1c(-c2cnn(-c3ccc(C(F)(F)F)cc3)c2)c(C(F)(F)F)oc2c(O)c(O)ccc12 [KH-3-150]
13 µM | ~14 µM | – | 5 µM | – | – | O=c1c(-c2cnn(-c3cccc(Cl)c3)c2)c(C(F)(F)F)oc2c(O)c(O)ccc12 [KH-3-151]
9 µM | > 14 µM | – | 30 µM | – | – | N#Cc1ccc(-n2cc(-c3c(C(F)(F)F)oc4c(O)c(O)ccc4c3=O)cn2)cc1 [KH-3-152]
3.4 µM | ~20 µM | – | 21 µM | – | – | O=c1c(-c2ccnn2Cc2ccccc2)c(C(F)(F)F)oc2c(O)c(O)ccc12 [KH-3-160A]
8 µM | > 14 µM | – | – | – | – | O=c1c(-c2cnn(-c3ccc(F)cc3)c2)c(C(F)(F)F)oc2c(O)c(O)ccc12 [KH-3-174]
5 µM | ~14 µM | – | 9 µM | – | – | O=c1c(-c2cnn(-c3cccc(F)c3)c2)c(C(F)(F)F)oc2c(O)c(O)ccc12 [KH-4-41]
10 µM | – | Inactive | – | – | – | NC(=O)c1ccccc1-n1cc(-c2c(C(F)(F)F)oc3c(O)c(O)ccc3c2=O)cn1 [KH-4-44]
8 µM | > 14 µM | – | – | – | – | O=c1c(-c2cnn(-c3cccc(C(F)(F)F)c3)c2)c(C(F)(F)F)oc2c(O)c(O)ccc12 [KH-4-65]
9 µM | > 14 µM | – | – | – | – | N#Cc1cccc(-n2cc(-c3c(C(F)(F)F)oc4c(O)c(O)ccc4c3=O)cn2)c1 [KH-4-66]
– | – | Inactive | – | Inactive | – | O=c1c(-c2cnn(-c3cccnc3)c2)c(C(F)(F)F)oc2c(O)c(O)ccc12 [KH-4-67]
– | > 14 µM | – | – | – | Inactive | Nc1cccc(-n2cc(-c3c(C(F)(F)F)oc4c(O)c(O)ccc4c3=O)cn2)c1 [KH-4-78]
– | ~14 µM | – | 19 µM | – | – | Cc1cccc(-n2cc(-c3c(C(F)(F)F)oc4c(O)c(O)ccc4c3=O)cn2)c1 [KH-4-79]
– | > 14 µM | – | 26 µM | – | – | O=c1c(-c2cnn(-c3ccccc3Cl)c2)c(C(F)(F)F)oc2c(O)c(O)ccc12 [KH-4-88]
– | ~10 µM | – | 9 µM | – | – | O=c1c(-c2cnn(-c3ccc(Cl)cc3Cl)c2)c(C(F)(F)F)oc2c(O)c(O)ccc12 [KH-4-98]
– | ~10 µM | – | 9 µM | – | – | O=c1c(-c2cnn(-c3ccc(Cl)c(Cl)c3)c2)c(C(F)(F)F)oc2c(O)c(O)ccc12 [KH-4-99]
– | ~10 µM | – | 6 µM | – | – | O=c1c(-c2cnn(-c3cc(Cl)cc(Cl)c3)c2)c(C(F)(F)F)oc2c(O)c(O)ccc12 [KH-4-116]
– | – | Inactive | – | – | Inactive | O=c1c(-c2cnn(-c3ccccc3)c2)c(C(F)(F)F)oc2c(OS(=O)(=O)C(F)(F)F)c(O)ccc12 [KH-4-136]
– | > 14 µM | – | – | – | – | O=c1c(-c2cnn(-c3ccccc3)n2)c(C(F)(F)F)oc2c(O)c(O)ccc12 [KH-5-09]
82 µM | > 10 µM | – | – | – | – | COc1ccc2c(=O)c(-c3cnn(Cc4cccc(Cl)c4)c3)c(C(F)(F)F)oc2c1OC [MSSM-RJD-MM-017, 3-(1-(3-chlorobenzyl)-1H-pyrazol-4-yl)-7,8-dimethoxy-2-(trifluoromethyl)-4H-chromen-4-one]
> 100 µM | > 10 µM | – | – | – | – | COc1cccc(Cn2cc(-c3c(C(F)(F)F)oc4c(OC)c(OC)ccc4c3=O)cn2)c1 [MSSM-RJD-MM-018, 7,8-dimethoxy-3-(1-(3-methoxybenzyl)-1H-pyrazol-4-yl)-2-(trifluoromethyl)-4H-chromen-4-one]
92 µM | > 10 µM | – | – | – | – | COc1ccc2c(=O)c(-c3cnn(Cc4cccc(C)c4)c3)c(C(F)(F)F)oc2c1OC [MSSM-RJD-MM-019]
